molecular target: T1, SIRT1 (Homo sapiens, UniProt Q96EB6); test: Trp mass spectrometry assay of SIRT1 activation; type: biochemical; settings: Trp peptide Ac-R-H-K-K(Ac)-W-NH2 0.5 μM, 120 μM βNAD+, 10 nM SIRT1, 25 min, 25° C.
T1 sequence (Q96EB6 1-747): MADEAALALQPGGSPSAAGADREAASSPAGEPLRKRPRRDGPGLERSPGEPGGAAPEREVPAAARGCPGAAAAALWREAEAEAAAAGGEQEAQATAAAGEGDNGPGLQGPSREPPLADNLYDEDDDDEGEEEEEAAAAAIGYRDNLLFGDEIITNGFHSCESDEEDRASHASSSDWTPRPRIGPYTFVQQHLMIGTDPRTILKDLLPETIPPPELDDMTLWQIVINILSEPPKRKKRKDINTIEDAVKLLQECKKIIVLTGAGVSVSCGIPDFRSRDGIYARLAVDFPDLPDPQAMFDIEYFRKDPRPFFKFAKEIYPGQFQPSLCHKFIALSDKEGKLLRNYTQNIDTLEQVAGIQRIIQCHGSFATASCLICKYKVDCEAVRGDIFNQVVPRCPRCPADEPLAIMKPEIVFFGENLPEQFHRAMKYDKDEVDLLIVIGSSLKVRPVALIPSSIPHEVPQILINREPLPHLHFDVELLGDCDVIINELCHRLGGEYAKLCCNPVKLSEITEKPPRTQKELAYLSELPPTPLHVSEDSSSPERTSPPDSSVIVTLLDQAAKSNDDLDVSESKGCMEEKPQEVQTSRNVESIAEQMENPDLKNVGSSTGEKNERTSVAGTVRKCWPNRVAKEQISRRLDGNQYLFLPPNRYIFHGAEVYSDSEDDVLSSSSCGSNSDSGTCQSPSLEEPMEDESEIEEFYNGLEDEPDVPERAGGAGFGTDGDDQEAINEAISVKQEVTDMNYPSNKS
Excerpt: Mass spectrometry based assays were used to identify modulators of SIRT1 activity. […] The peptide was labeled with the fluorophore 5TMR (excitation 540 nm/emission 580 nm) at the C-terminus. The sequence of the peptide substrate was based on p53 with several modifications. In addition, the methionine residue naturally present in the sequence was replaced with the norleucine because the methionine may be susceptible to oxidation during synthesis and purification.
The Trp mass spectrometry assay was conducted as follows. […] The SIRT1 protein was obtained by cloning the SirT1 gene into a T7-promoter containing vector, which was then expressed in BL21(DE3) bacterial cells and purified as described in further detail below. Test compound was added at varying concentrations to this reaction mixture and the resulting reactions were monitored. After the 25 minute incubation with SIRT1, 10 μL of 10% formic acid was added to stop the reaction. The resulting reactions were sealed and frozen for later mass spec analysis. The relative SIRT1 activity was then determined by measuring the amount of O-acetyl-ADP-ribose (OAADPR) formed (or, alternatively, the amount of deacetylated Trp peptide generated) by the NAD-dependent sirtuin deacetylation reaction in the presence of varying concentrations of the test compound versus control reactions lacking the test compound.
The degree to which the test agent activated deacetylation by SIRT1 was expressed as EC1.5 (i.e., the concentration of compound required to increase SIRT1 activity by 50% over the control lacking test compound), and Percent Maximum Activation (i.e., the maximum activity relative to control (100%) obtained for the test compound).
This time point was the same as that used for test compounds and, within the linear range, the endpoint represents a change in velocity.
For the above assay, SIRT1 protein was expressed and purified as follows. The SirT1 gene was cloned into a T7-promoter containing vector and transformed into BL21(DE3). The protein was expressed by induction with 1 mM IPTG as an N-terminal His-tag fusion protein at 18° C. overnight and harvested at 30,000×g. Cells were lysed with lysozyme in lysis buffer (50 mM Tris-HCl, 2 mM Tris[2-carboxyethyl]phosphine (TCEP), 10 μM ZnCl2, 200 mM NaCl) and further treated with sonication for 10 min for complete lysis. The protein was purified over a Ni-NTA column (Amersham) and fractions containing pure protein were pooled, concentrated and run over a sizing column (Sephadex S200 26/60 global). The peak containing soluble protein was collected and run on an Ion-exchange column (MonoQ). Gradient elution (200 mM-500 mM NaCl) yielded pure protein. This protein was concentrated and dialyzed against dialysis buffer (20 mM Tris-HCl, 2 mM TCEP) overnight. The protein was aliquoted and frozen at −80° C. until further use.
“NT” means not tested; “ND” means not determinable.

TRP Activity (EC1.5, concentration of compound required to increase SIRT1 activity by 50% over control) | TRP MAX RESP (percent maximum fold activation relative to control) | SMILES
A (EC1.5<1 μM) | A (Fold activation ≥150%) | O=C(Nc1cnc(OC[C@H](O)CO)nc1)N1c2nc(-c3cccc(C(F)(F)F)c3)ncc2N2CCC[C@H]1C2 [Example 104, (9S)—N-(2-((R)-2,3-dihydroxypropoxy)pyrimidin-5-yl)-2-(3-(trifluoromethyl)phenyl)-8,9-dihydro-6H-5,9-methanopyrimido[4,5-b][1,4]diazocine-10(7H)-carboxamide]
A (EC1.5<1 μM) | A (Fold activation ≥150%) | Cc1nc(-c2cccc(C(F)(F)F)c2)nc2c1N1CCC[C@@H](C1)N2C(=O)Nc1cncc(OC[C@H](O)CO)c1 [Example 107, (9S)—N-(5-((R)-2,3-dihydroxypropoxy)pyridin-3-yl)-4-methyl-2-(3-(trifluoromethyl)phenyl)-8,9-dihydro-6H-5,9-methanopyrimido[4,5-b][1,4]diazocine-10(7H)-carboxamide]
B (EC1.5 1-25 μM) | A (Fold activation ≥150%) | C[C@@H](NC(=O)c1ncc2c(n1)N(C(=O)Nc1nccc(OC[C@@H](O)CO)n1)[C@H]1CCCN2C1)C(F)(F)F [Example 76, (9S)—N10-(4-((S)-2,3-dihydroxypropoxy)pyrimidin-2-yl)-N2-((R)-1,1,1-trifluoropropan-2-yl)-8,9-dihydro-6H-5,9-methanopyrimido[4,5-b][1,4]diazocine-2,10(7H)-dicarboxamide]
A (EC1.5<1 μM) | A (Fold activation ≥150%) | Cc1nc(-c2cccc(C(F)(F)F)c2)nc2c1N1CC[C@@H](C1)N2C(=O)Nc1cncc(OC[C@H](O)CO)c1 [Example 45, (8S)—N-(5-((R)-2,3-dihydroxypropoxy)pyridin-3-yl)-4-methyl-2-(3-(trifluoromethyl)phenyl)-7,8-dihydro-5,8-methanopyrimido[4,5-b][1,4]diazepine-9(6H)-carboxamide]
A (EC1.5<1 μM) | A (Fold activation ≥150%) | O=C(Nc1nccc(OC[C@H](O)CO)n1)N1c2nc(-c3cccc(C(F)(F)F)c3)ncc2N2CCC[C@H]1C2 [Example 100, (9S)—N-(4-((R)-2,3-dihydroxypropoxy)pyrimidin-2-yl)-2-(3-(trifluoromethyl)phenyl)-8,9-dihydro-6H-5,9-methanopyrimido[4,5-b][1,4]diazocine-10(7H)-carboxamide]

SMILES | TRP Activity (EC1.5, concentration of compound required to increase SIRT1 activity by 50% over control) | TRP MAX RESP (percent maximum fold activation relative to control)
CC(C)NC(=O)N1c2nc(-c3cccc(C(F)(F)F)c3)ncc2N2CC[C@H]1C2 [Example 30, (8S)—N-isopropyl-2-(3-(trifluoromethyl)phenyl)-7,8-dihydro-5,8-methanopyrimido[4,5-b][1,4]diazepine-9(6H)-carboxamide] | B (EC1.5 1-25 μM) | A (Fold activation ≥150%)
O=C(NCC(F)(F)F)c1ncc2c(n1)N(C(=O)Nc1ccccn1)[C@H]1CCCN2C1 [Example 62, (9S)—N10-(pyridin-2-yl)-N2-(2,2,2-trifluoroethyl)-8,9-dihydro-6H-5,9-methanopyrimido[4,5-b][1,4]diazocine-2,10(7H)-dicarboxamide] | A (EC1.5<1 μM) | A (Fold activation ≥150%)
O=C(NC1CCC1)N1c2nc(-c3cccc(C(F)(F)F)c3)ncc2N2CC[C@H]1C2 [Example 20, (8S)—N-cyclobutyl-2-(3-(trifluoromethyl)phenyl)-7,8-dihydro-5,8-methanopyrimido[4,5-b][1,4]diazepine-9(6H)-carboxamide] | A (EC1.5<1 μM) | A (Fold activation ≥150%)

Reference: US20180319810A1, “SUBSTITUTED BRIDGED UREA ANALOGS AS SIRTUIN MODULATORS” (GlaxoSmithKline Intellectual Property (No.2) Limited, priority 2014, published 2018)
